Several values for one entry are separate records, joined by “and”; a condition that tells them apart may be missing. Equal entries are not always repeated. Where two headings read alike, the source gives them in different places.
Legend:
Hsp90α = Hsp90α (Homo sapiens, UniProt P07900); assay: Fluorescence polarization assay (FITC-GDA tracer displacement), Hsp90α; assay type: binding; details: for % Polarization to DMSO control: triplicate wells
Description: (§1) Compounds were tested in triplicate wells (1% DMSO final concentration). For each plate, wells containing buffer only (background), tracer in buffer only (low polarization control), and protein and tracer in buffer with 1% DMSO (high polarization control) were included. Plates were incubated at 4 °C with rocking for 24 h. […] Polarization values were correlated to % tracer bound and compound concentrations. The concentration at which the tracer was 50% displaced by the inhibitor was determined using Graphpad Prism.

Hsp90β = Hsp90β (Homo sapiens, UniProt P08238); assay: Fluorescence polarization assay (FITC-GDA tracer displacement), Hsp90β; assay type: binding; details: for selectivity for Hsp90β: Hsp90β versus Hsp90α, from Kd values; for % Polarization to DMSO control: triplicate wells
Description: as §1

[1] = fluorescence polarization, apparent Kd, read-out: Kd Hsp90α
[2] = fluorescence polarization, apparent Kd, read-out: Kd Hsp90β

Hsp90β, sequence (P08238 whole entry): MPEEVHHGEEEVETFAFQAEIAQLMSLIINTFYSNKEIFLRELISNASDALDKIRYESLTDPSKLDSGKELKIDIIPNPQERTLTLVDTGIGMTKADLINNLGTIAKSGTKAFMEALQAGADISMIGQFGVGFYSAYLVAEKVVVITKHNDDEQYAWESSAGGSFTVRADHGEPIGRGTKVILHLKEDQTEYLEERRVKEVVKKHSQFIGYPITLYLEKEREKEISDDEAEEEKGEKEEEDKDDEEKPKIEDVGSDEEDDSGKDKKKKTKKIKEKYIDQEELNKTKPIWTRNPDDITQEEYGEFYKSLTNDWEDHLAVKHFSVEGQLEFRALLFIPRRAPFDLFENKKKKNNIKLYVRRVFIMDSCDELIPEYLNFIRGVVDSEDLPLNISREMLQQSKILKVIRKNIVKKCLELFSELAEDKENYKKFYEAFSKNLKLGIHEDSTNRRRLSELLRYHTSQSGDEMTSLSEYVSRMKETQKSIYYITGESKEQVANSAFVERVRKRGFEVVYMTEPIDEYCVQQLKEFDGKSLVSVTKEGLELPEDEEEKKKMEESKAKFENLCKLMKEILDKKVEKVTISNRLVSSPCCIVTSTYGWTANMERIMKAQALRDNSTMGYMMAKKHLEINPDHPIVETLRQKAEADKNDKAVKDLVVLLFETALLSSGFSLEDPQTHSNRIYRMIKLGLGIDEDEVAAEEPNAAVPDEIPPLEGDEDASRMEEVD

CC(C)c1ccc(O)c(C(=O)N2Cc3ccccc3C2)c1 [Compound 1]
% Polarization to DMSO control (Hsp90α; Suppl Table 10, 1 0.5 μM): 84.59% and 83.37% and 82.16% | % Polarization to DMSO control (Hsp90α; Suppl Table 10, 1 1 μM): 70.63% and 71.84% and 71.69% | % Polarization to DMSO control (Hsp90α; Suppl Table 10, 1 5 μM): 31.78% and 33.90% and 37.85% | % Polarization to DMSO control (Hsp90α; Suppl Table 10, 1 10 μM): 22.83% and 17.67% and 25.25% | % Polarization to DMSO control (Hsp90α; Suppl Table 10, 1 25 μM): 16.45% and 15.39% and 18.58% | % Polarization to DMSO control (Hsp90α; Suppl Table 10, 1 50 μM): 11.45% and 12.05% and 8.56% | % Polarization to DMSO control (Hsp90α; Suppl Table 10, 1 100 μM): 9.47% and 8.26% | Kd (Hsp90α; [1]): 3210 nM | selectivity for Hsp90β (Hsp90β): ~ 2 fold | % Polarization to DMSO control (Hsp90β; Suppl Table 11, 1 0.5 μM): 68.22% and 73.53% and 68.55% | % Polarization to DMSO control (Hsp90β; Suppl Table 11, 1 1 μM): 60.93% and 62.75% and 64.41% | % Polarization to DMSO control (Hsp90β; Suppl Table 11, 1 5 μM): 23.80% and 23.30% and 19.99% | % Polarization to DMSO control (Hsp90β; Suppl Table 11, 1 10 μM): 15.34% and 18.00% and 10.37% | % Polarization to DMSO control (Hsp90β; Suppl Table 11, 1 25 μM): 12.53% and 4.40% and 5.73% | % Polarization to DMSO control (Hsp90β; Suppl Table 11, 1 50 μM): 5.73% and 5.90% and 4.40% | % Polarization to DMSO control (Hsp90β; Suppl Table 11, 1 100 μM): 8.22% and 4.90% and 9.38% | Kd (Hsp90β; [2]): 1630 nM

CC(C)c1cc(C(=O)N2Cc3ccccc3C2)c(O)cc1CC#N [Compound 2]
Kd (Hsp90α): 2280 ± 120 nM | % Polarization to DMSO control (Hsp90α; Suppl Table 9, 2 0.1 μM): 95.62% and 98.23% and 93.53% | % Polarization to DMSO control (Hsp90α; Suppl Table 9, 2 0.5 μM): 78.89% and 78.37% and 75.58% | % Polarization to DMSO control (Hsp90α; Suppl Table 9, 2 1 μM): 66.18% and 68.79% and 67.22% | % Polarization to DMSO control (Hsp90α; Suppl Table 9, 2 5 μM): 22.97% and 29.94% | Kd (Hsp90β): 970 nM | selectivity for Hsp90β (Hsp90β): ~ 2.5 fold | % Polarization to DMSO control (Hsp90β; Suppl Table 8, 2 0.1 μM): 90.36% and 90.17% and 91.52% | % Polarization to DMSO control (Hsp90β; Suppl Table 8, 2 0.5 μM): 65.62% and 68.90% and 70.45% | % Polarization to DMSO control (Hsp90β; Suppl Table 8, 2 1 μM): 47.25% and 50.54% and 49.96% | % Polarization to DMSO control (Hsp90β; Suppl Table 8, 2 5 μM): 12.84% and 16.90% and 23.47% | % Polarization to DMSO control (Hsp90β; Suppl Table 8, 2 10 μM): 4.14% and 8.59% and 10.52%

COCc1cc(O)c(C(=O)N2Cc3ccccc3C2)cc1C(C)C [Compound 3]
Kd (Hsp90α): > 25000 nM | binding to Hsp90α (Hsp90α; at 10 μM): did not bind | Kd (Hsp90β): > 25000 nM | binding to Hsp90β (Hsp90β; at 10 μM): did not bind

CC(C)c1cc(C(=O)N2Cc3ccccc3C2)c(O)cc1C=O [Compound 4]
Kd (Hsp90α; Kd Hsp90α): 1550 nM and 1220 nM

CC(C)c1cc(C(=O)N2Cc3ccccc3C2)c(O)c(CO)c1O [Compound 5]
Kd (Hsp90β; Kd Hsp90β, fluorescence polarization, apparent Kd): 4270 nM | % Polarization to DMSO control (Hsp90β; Suppl Table 5, 5 1 μM): 73.89% and 76.47% and 73.55% | % Polarization to DMSO control (Hsp90β; Suppl Table 5, 5 5 μM): 48.11% and 44.50% and 46.91% | % Polarization to DMSO control (Hsp90β; Suppl Table 5, 5 10 μM): 27.82% and 30.40% and 31.26% | % Polarization to DMSO control (Hsp90β; Suppl Table 5, 5 25 μM): 13.21% and 21.12% and 17.17% | % Polarization to DMSO control (Hsp90β; Suppl Table 5, 5 50 μM): 21.98% and 21.29%

CC(C)c1cc(C(=O)N2Cc3ccc(F)cc3C2)c(O)c2cnoc12 [Compound 6b]
% Polarization to DMSO control (Hsp90α; Suppl Table 12, 6b 0.125 μM): 101. 64% and 98.69% and 98.03% | % Polarization to DMSO control (Hsp90α; Suppl Table 12, 6b 0.5 μM): 97.54% and 93.76% and 98.36% | % Polarization to DMSO control (Hsp90α; Suppl Table 12, 6b 1 μM): 98.19% and 97.05% and 96.39% | % Polarization to DMSO control (Hsp90α; Suppl Table 12, 6b 3 μM): 87.85% and 82.27% and 73.25% | % Polarization to DMSO control (Hsp90α; Suppl Table 12, 6b 10 μM): 66.68% and 53.88% and 63.89% | % Polarization to DMSO control (Hsp90α; Suppl Table 12, 6b 25 μM): 41.57% and 41.90% and 42.23% | % Polarization to DMSO control (Hsp90α; Suppl Table 12, 6b 75 μM): 20.07% and 24.50% and 20.73% | Kd (Hsp90α; [1]): 18200 nM | selectivity over Hsp90α and Grp94 (Hsp90β; Hsp90β versus Hsp90α and Grp94): ~ 50 fold | % Polarization to DMSO control (Hsp90β; Suppl Table 13, 6b 0.125 μM): 80.92% and 79.55% and 79.72% | % Polarization to DMSO control (Hsp90β; Suppl Table 13, 6b 0.5 μM): 44.66% and 45.17% | % Polarization to DMSO control (Hsp90β; Suppl Table 13, 6b 1 μM): 27.05% and 23.28% and 31.32% | Kd (Hsp90β; fluorescence polarization, apparent Kd, value in nM, read-out: Kd Hsp90β): 180 nM | Kd (Hsp90β; [2]): 440 nM
